Active and inactive are the calls of the source. No cut-off for these calls is given here.
What was measured:
A549 [1] = assay: Cell cycle arrest in human A549 cells assessed as accumulation at S phase at 4 uM after 24 hrs by flow cytometry; format: functional
A549 [2] = assay: Induction of apoptosis in human A549 cells transfected with lentivirus Smac-siRNA assessed as reduction of Smac mRNA level at 4 uM after 24 hrs followed by irradiated with light dose 0.18 J/cm2 by MTT assay; format: functional; design: scale not given: the % may be the effect or the level left
A549 [3] = assay: Induction of apoptosis in human A549 cells assessed as upregulation of Bcl2 mRNA expression at 4 uM after 24 hrs followed by irradiated with light dose 0.18 J/cm2 by RT-PCR analysis; format: functional, cell-based
[4] = Drug uptake in human A549 cell mitochondria by using Hoechst 33258 staining; format: ADME
A549 [5] = assay: Induction of apoptosis in human A549 cells assessed as viable cells at 4 uM after 24 hrs using annexin-V-PE/7-AAD double staining by flow cytometry; format: functional; conditions: A549, 24 h, read-out: Activity
A549 [6] = assay: Antitumor activity against human A549 cells xenografted in nude BALB/C mouse assessed as reduction of tumor growth at 8 uM after 20 days; format: functional, cell-based
A549 [7] = assay: Cell cycle arrest in human A549 cells assessed as accumulation at G2/M phase at 4 uM after 24 hrs followed by irradiated with light dose 0.18 J/cm2 by flow cytometry; format: functional
A549 [8] = assay: Induction of apoptosis in human A549 cells assessed as pre-necrotic cells at 4 uM after 24 hrs using annexin-V FITC/PI double staining by flow cytometry; format: functional
A549 [9] = assay: Induction of apoptosis in human A549 cells assessed as pre-necrotic cells at 4 uM after 24 hrs followed by irradiated with light dose 0.18 J/cm2 using annexin-V FITC/PI double staining by flow cytometry; format: functional
SW480 = assay: Cytotoxicity against human SW480 cells assessed as cell death at 4 uM after 24 hrs followed by irradiated with light dose 0.18 J/cm2 by MTT assay; format: functional, cell-based
A549 [10] = assay: Antitumor activity against human A549 cells xenografted in nude BALB/C mouse assessed as dark tumor at 8 uM after 24 hrs followed by irradiated with light dose 78 J/cm2 measured after 10 days; format: functional, cell-based
A549 [11] = assay: Antitumor activity against human A549 cells xenografted in nude BALB/C mouse assessed as dry tumor at 8 uM after 24 hrs followed by irradiated with light dose 78 J/cm2 measured after 10 days; format: functional, cell-based
A549 [12] = assay: Induction of apoptosis in human A549 cells assessed as upregulation of TNFSF13 mRNA expression at 4 uM after 24 hrs followed by irradiated with light dose 0.18 J/cm2 by RT-PCR analysis; format: functional, cell-based
A549 [13] = assay: Induction of apoptosis in human A549 cells assessed as down regulation of […] mRNA expression at 2 uM after 24 hrs followed by irradiated with light dose 0.18 J/cm2 by RT-PCR analysis; format: functional, cell-based
[14] = Drug uptake in human A549 cell nucleus by using Hoechst 33258 staining; format: ADME, cell-based
A549 [15] = assay: Induction of apoptosis in human A549 cells assessed as apoptotic cells at 4 uM after 24 hrs followed by irradiated with light dose 0.18 J/cm2 using annexin-V FITC/PI double staining by flow cytometry; format: functional
A549 [16] = assay: Induction of apoptosis in human A549 cells assessed as late apoptotic mitochondrial membrane depolarized cells at 4 uM after 24 hrs followed by irradiated with light dose 0.18 J/cm2 using JC-1 staining by flow cytometry; format: functional
A549 [17] = assay: Induction of apoptosis in human A549 cells assessed as late apoptotic cells at 4 uM after 24 hrs using annexin-V FITC/PI double staining by flow cytometry; format: functional
A549 [18] = assay: Induction of apoptosis in human A549 cells assessed as live mitochondrial membrane depolarized cells at 4 uM after 24 hrs using JC-1 staining by flow cytometry; format: functional
A549 [19] = assay: Induction of apoptosis in human A549 cells assessed as upregulation of XIAP mRNA expression at 4 uM after 24 hrs followed by irradiated with light dose 0.18 J/cm2 by RT-PCR analysis; format: functional, cell-based
A549 [20] = assay: Induction of apoptosis in human A549 cells assessed as late apoptotic mitochondrial membrane depolarized cells at 4 uM after 24 hrs using JC-1 staining by flow cytometry; format: functional
A549 [21] = assay: Antiproliferative activity against human A549 cells assessed as reduction of colony formation at 4 uM irradiated with light dose 0.18 J/cm2 for 14 days before compound challenge measured after 24 hrs using giemsa staining by microscopic analysis; format: functional, cell-based
A549 [22] = assay: Induction of apoptosis in human A549 cells transfected with lentivirus Smac-siRNA assessed as cell survival at 4 uM after 24 hrs followed by irradiated with light dose 0.18 J/cm2 by MTT assay; format: functional; conditions: A549, light or radiation study, read-out: Activity
A549 [23] = assay: Induction of apoptosis in human A549 cells transfected with lentivirus TNFSF13-siRNA assessed as cell survival at 4 uM after 24 hrs followed by irradiated with light dose 0.18 J/cm2 by MTT assay; format: functional; conditions: A549, light or radiation study, read-out: Activity
A549 [24] = assay: Induction of apoptosis in human A549 cells transfected with lentivirus GFP assessed as cell survival at 4 uM after 24 hrs followed by irradiated with light dose 0.18 J/cm2 by MTT assay; format: functional; conditions: A549, light or radiation study, read-out: Activity
HL-60 = assay: Cytotoxicity against human HL60 cells assessed as cell survival at 4 uM after 24 hrs followed by irradiated with light dose 0.18 J/cm2 by MTT assay; format: functional; conditions: HL-60, light or radiation study, read-out: Activity
A549 [25] = assay: Induction of apoptosis in human A549 cells assessed as apoptotic cells at 4 uM after 24 hrs using annexin-V-PE/7-AAD double staining by flow cytometry; format: functional
A549 [26] = assay: Antitumor activity against human A549 cells xenografted in nude BALB/C mouse assessed as tumor shrinkage at 8 uM after 24 hrs followed by irradiated with light dose 78 J/cm2 measured after 10 days; format: functional, cell-based
A549 [27] = assay: Induction of apoptosis in human A549 cells assessed as dying mitochondrial membrane depolarized cells at 4 uM after 24 hrs using JC-1 staining by flow cytometry; format: functional
A549 [28] = assay: Induction of apoptosis in human A549 cells assessed as live mitochondrial membrane polarized cells at 4 uM after 24 hrs using JC-1 staining by flow cytometry; format: functional

With `C=Cc1c(C)c2cc3nc(c4c5[nH]c(cc6nc(cc1[nH]2)C(C)=C6CC)c(C)c5C(=O)N(C1CCCCC1)C4=O)[C@@H](CCC(=O)O)[C@@H]3C` the Activity (A549 [1]) was 35.44%, the Activity (A549 [2]) was 60% and the Activity (A549 [3]) was “Active”. For the same compound, the Drug uptake [4] was “Active”, the viability at 4 µM (A549 [5]) was 91% and the Activity (A549 [6]) was “inactive”. For the same compound, the Activity (A549 [7]) was 56.07%, the Activity (A549 [8]) was 0.24% and the Activity (A549 [9]) was 0.4%. The Activity (SW480) was “Active”, the Activity (A549 [10]) was “Active” and the Activity (A549 [11]) was “Active”. For the same compound, the Activity (A549 [12]) was “Active”, the Activity (A549 [13]) was “Active” and the Drug uptake [14] was “Active”. The Activity (A549 [15]) was 74.24%, the Activity (A549 [16]) was 91.08% and the Activity (A549 [17]) was 3.03%. For the same compound, the Activity (A549 [18]) was 0.01%, the Activity (A549 [19]) was “Active” and the Activity (A549 [20]) was 88.88%. For the same compound, the Activity (A549 [21]) was “Active”, the viability at 4 µM (A549 [22]) was 24.5% and the viability at 4 µM (A549 [23]) was 72.1%. The viability at 4 µM (A549 [24]) was 44.9%, the viability at 4 µM (HL-60) was 78.6% and the Activity (A549 [25]) was 2.96%. For the same compound, the Activity (A549 [26]) was “Active”, the Activity (A549 [27]) was 9.35% and the Activity (A549 [28]) was 0%.

Source: ChEMBL document CHEMBL1240505, “Studies on preparation and photodynamic mechanism of chlorin P6-13,15-N-(cyclohexyl)cycloimide (Chlorin-H) and its antitumor effect for photodynamic therapy in vitro and in vivo” (Bioorg Med Chem, 2010)
